≈ marks a conversion by molar mass, not a printed value. Counter-ions that a name gives are not always drawn.

The series in a line: Solubility of ziprasidone from conjugates in phosphate buffered saline (HPLC). The settings on record: PBS, continuous agitation; for Solubility of ziprasidone, Sample Conc., 20 min: time point 20 min; for Solubility of ziprasidone, Sample Conc., 7 days: time point 7 days. In kind it is physicochemical. As to the method: For the solubility determination, all conjugate samples were placed in Eppendorf tubes with 1-ml aliquot of phosphate buffered saline (PBS), pH adjusted to 7.4. At selected time points (20 minutes, 1 hour, 6 hours, 24 hours, and 7 days), 200 µl of PBS exposed to each sample was withdrawn and replaced with fresh medium. The samples were continuously agitated for the duration of the study. To prepare HPLC samples, the 200-μl samples were filtered through 0.22-μm syringe, filter membrane, diluted as needed, and injected at appropriately adjusted volume to determine ziprasidone concentration in solution.

Turning to `O=C1Cc2cc(CCN3CCN(c4nsc5ccccc45)CC3)c(Cl)cc2N1` [Ziprasidone Mesylate], under “pH 7.4”, the “Solubility of ziprasidone, Sample Conc., 20 min” value came out at 1.46 µg/mL and the “Solubility of ziprasidone, Sample Conc., 7 days” value was determined as 1.31 µg/mL.

The solubility is how much of the substance goes into solution per volume. Consider `O=C1Cc2cc(CCN3CCN(c4nsc5ccccc45)CC3)c(Cl)cc2N1` [Ziprasidone Free Base, 5-[2-[4-(1,2-benzisothiazol-3-yl)-1-piperazinyl]ethyl]-6-chloro-1,3-dihydro-2H-indol-2-one], for which, under “pH 7.4”, the “Solubility of ziprasidone, Sample Conc., 20 min” value came to 0.01 µg/mL and the “Solubility of ziprasidone, Sample Conc., 7 days” value was determined as 0.01 µg/mL. In addition, the “Solubility of ziprasidone, Sample Conc., 6 hours” value (pH 7.4, time point 6 hours) is 0.22 µg/mL. Further, the solubility at 24 h (phosphate buffered saline, pH 7.4, aqueous buffer, thermodynamic from solid, time point 24 hours, read-out: Solubility of ziprasidone, Sample Conc., 24 hours) came out at 2 µg/mL (≈ 4.84 µM).
